Patent US20260234115A1, “LIPID COMPOUNDS, COMPOSITIONS, AND USES THEREOF” (Liberate Bio, Inc., priority 2023, published 2026)
Marks after values point to notes of the source that are not given here.

Test system: mouse organs
Assay: In vivo activity screening in mice: organ mean total flux (p/s) of luciferase activity after injection of F2 LNP pools (Table 6, FIG. 7A-7C)
Settings: luciferase mRNA
In short: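 C57BL/6J mice given one tail-vein injection of pooled Formulation F2 LNPs carrying firefly luciferase mRNA (0.25-3 mg/kg) in PBS. At 4-6 h, s.c. D-luciferin given; organs imaged ex vivo by IVIS within 10-15 min, after saline cardiac perfusion. Mean total flux (p/s) per organ ROI.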

| SMILES | Organ Mean Total Flux Femur (Mouse 3, dose 1.0 mg/kg) | Organ Mean Total Flux Heart (Mouse 3, dose 1.0 mg/kg) | Organ Mean Total Flux Kidney (Mouse 3, dose 1.0 mg/kg) | Organ Mean Total Flux Liver (Mouse 3, dose 1.0 mg/kg) | Organ Mean Total Flux Lung (Mouse 3, dose 1.0 mg/kg) | Organ Mean Total Flux Muscle (Mouse 3, dose 1.0 mg/kg) | Organ Mean Total Flux Pancreas (Mouse 3, dose 1.0 mg/kg) | Organ Mean Total Flux Spleen (Mouse 3, dose 1.0 mg/kg) | other results |
| --- | --- | --- | --- | --- | --- | --- | --- | --- | --- |
| CCCCCCC(CCC(=O)OCC(COC(=O)CCCCCC(=O)OCCC(CCCCC)CCCCC)(COC(=O)CCCCCC(=O)OCCC(CCCCC)CCCCC)COC(=O)CCCCCC(=O)OCCC(CCCCC)CCCCC)OC(=O)NCCN1CCCC1 (centres unmarked) [Compound 52] | 6.0 p/s (×10^6) | 9.0 p/s (×10^6) | 8.4 p/s (×10^6) | 12143 p/s (×10^6) | 56.0 p/s (×10^6) | 15.1 p/s (×10^6) | 4.7 p/s (×10^6) | 6.1 p/s (×10^6) | – |
| CCCCCCC(CCC(=O)OCC(COC(=O)CCCCC(=O)OCCC(CCCC)CCCCC)(COC(=O)CCCCC(=O)OCCC(CCCCC)CCCCC)COC(=O)CCCCC(=O)OCCC(CCCCC)CCCCC)OC(=O)NCCN1CCCC1 (centres unmarked) [Compound 53] | 2.5 p/s (×10^6) | 2.1 p/s (×10^6) | 2.2 p/s (×10^6) | 1286 p/s (×10^6) | 12.1 p/s (×10^6) | 5.5 p/s (×10^6) | 2.3 p/s (×10^6) | 9.3 p/s (×10^6) | – |
| CCCCCCC(CCC(=O)OCC(COC(=O)CCCC(=O)OCCC(CCCCC)CCCCC)(COC(=O)CCCC(=O)OCCC(CCCCC)CCCCC)COC(=O)CCCC(=O)OCCC(CCCCC)CCCCC)OC(=O)NCCN1CCCC1 (centres unmarked) [Compound 54, O5-[2,2-bis[[5-oxo-5-(3-pentyloctoxy)pentanoyl]oxymethyl]-3-[4-(2-pyrrolidin-1-ylethylcarbamoyloxy)decanoyloxy]propyl]O1-(3-pentyloctyl) pentanedioate] | 9.0 p/s (×10^6) | 19.3 p/s (×10^6) | 60.3 p/s (×10^6) | 24850 p/s (×10^6) | 81.5 p/s (×10^6) | 19.2 p/s (×10^6) | 3.6 p/s (×10^6) | 9.6 p/s (×10^6) | – |
| CCCCCCC(CCC(=O)OCC(COC(=O)CCCCCOC(=O)C(CCCC)CCCCCC)(COC(=O)CCCCCOC(=O)C(CCCC)CCCCCC)COC(=O)CCCCCOC(=O)C(CCCC)CCCCCC)OC(=O)NCCN1CCCC1 (centres unmarked) [Compound 55, [6-[2,2-bis[6-(2-butyloctanoyloxy)hexanoyloxymethyl]-3-[4-(2-pyrrolidin-1ylethylcarbamoyloxy)decanoyloxy]propoxy]-6-oxo-hexyl]2-butyloctanoate] | 6.1 p/s (×10^6) | 4.4 p/s (×10^6) | 2.4 p/s (×10^6) | 4527 p/s (×10^6) | 19.9 p/s (×10^6) | 17.4 p/s (×10^6) | 2.6 p/s (×10^6) | 6.2 p/s (×10^6) | – |
| CCCCCCC(CCC(=O)OCC(COC(=O)CCCCOC(=O)C(CCCC)CCCCCC)(COC(=O)CCCCOC(=O)C(CCCC)CCCCCC)COC(=O)CCCCOC(=O)C(CCCC)CCCCCC)OC(=O)NCCN1CCCC1 (centres unmarked) [Compound 56, [5-[2,2-bis[5-(2-butyloctanoyloxy)pentanoyloxymethyl]-3-[4-(2-pyrrolidin-1-ylethylcarbamoyloxy)decanoyloxy]propoxy]-5-oxo-pentyl]2-butyloctanoate] | 6.4 p/s (×10^6) | 17.7 p/s (×10^6) | 9.4 p/s (×10^6) | 15800 p/s (×10^6) | 66.6 p/s (×10^6) | 19.7 p/s (×10^6) | 3.4 p/s (×10^6) | 13.0 p/s (×10^6) | – |
| CCCCCCC(CCC(=O)OCC(COC(=O)CCCCCCOC(=O)C(CCCC)CCCCCC)(COC(=O)CCCCCCOC(=O)C(CCCC)CCCCCC)COC(=O)CC12CC3CC(CC(C3)C1)C2)OC(=O)NCCN1CCCC1 (centres unmarked) [Compound 57, [7-[2-[[2-(1-adamantyl)acetyl]oxymethyl]-2-[7-(2-butyloctanoyloxy)heptanoyloxymethyl]-3-[4-(2-pyrrolidin-1-ylethylcarbamoyloxy)decanoyloxy]propoxy]-7-oxo-heptyl]2-butyloctanoate] | 7.4 p/s (×10^6) | 16.1 p/s (×10^6) | 11.4 p/s (×10^6) | 25033 p/s (×10^6) | 71.8 p/s (×10^6) | 16.4 p/s (×10^6) | 2.7 p/s (×10^6) | 6.5 p/s (×10^6) | – |
| CCCCCCC(CCC(=O)OCC(COC(=O)CCCCCOC(=O)C(CCCC)CCCCCC)(COC(=O)CCCCCOC(=O)C(CCCC)CCCCCC)COC(=O)CC12CC3CC(CC(C3)C1)C2)OC(=O)NCCN1CCCC1 (centres unmarked) [Compound 58, [6-[2-[[2-(1-adamantyl)acetyl]oxymethyl]-2-[6-(2-butyloctanoyloxy)hexanoyloxymethyl]-3-[4-(2-pyrolidin-1-ylethylcarbamoyloxy)decanoyloxy]propoxy]-6-oxo-hexyl]2-butyloctanoate] | 11.5 p/s (×10^6) | 2.8 p/s (×10^6) | 2.6 p/s (×10^6) | 1493 p/s (×10^6) | 41.0 p/s (×10^6) | 29.1 p/s (×10^6) | 9.2 p/s (×10^6) | 10.5 p/s (×10^6) | – |
| CCCCCCC(CCC(=O)OCC(COC(=O)CCCCOC(=O)C(CCCC)CCCCCC)(COC(=O)CCCCOC(=O)C(CCCC)CCCCCC)COC(=O)CC12CC3CC(CC(C3)C1)C2)OC(=O)NCCN1CCCC1 (centres unmarked) [Compound 59, [5-[2-[[2-(1-adamantyl)acetyl]oxymethyl]-2-[5-(2-butyloctanoyloxy)pentanoyloxymethyl]-3-[4-(2-pyrrolidin-1-ylethylcarbamoyloxy)decanoyloxy]propoxy]-5-oxo-pentyl]2-butyloctanoate] | – | – | – | – | – | – | – | – | Organ Mean Total Flux Femur (Mouse 13, dose 0.5 mg/kg): 2.6 p/s (×10^6); Organ Mean Total Flux Heart (Mouse 13, dose 0.5 mg/kg): 2.6 p/s (×10^6); Organ Mean Total Flux Kidney (Mouse 13, dose 0.5 mg/kg): 1.5 p/s (×10^6); Organ Mean Total Flux Liver (Mouse 13, dose 0.5 mg/kg): 1967 p/s (×10^6); Organ Mean Total Flux Lung (Mouse 13, dose 0.5 mg/kg): 9.9 p/s (×10^6); Organ Mean Total Flux Muscle (Mouse 13, dose 0.5 mg/kg): 4.7 p/s (×10^6); Organ Mean Total Flux Pancreas (Mouse 13, dose 0.5 mg/kg): 0.7 p/s (×10^6); Organ Mean Total Flux Spleen (Mouse 13, dose 0.5 mg/kg): 2.8 p/s (×10^6) |
| CCCCC/C=C\CCOC(=O)CCCCCC(=O)OCC(COC(=O)CCCCC)(COC(=O)CCCCCC(=O)OCC/C=C\CCCCC)COC(=O)CCC(CCCCCC)OC(=O)NCCN1CCCC1 (centres unmarked) [Compound 60] | – | – | – | – | – | – | – | – | Organ Mean Total Flux Femur (Mouse 2, dose 1.0 mg/kg): 56.4 p/s (×10^6); Organ Mean Total Flux Heart (Mouse 2, dose 1.0 mg/kg): 2.9 p/s (×10^6); Organ Mean Total Flux Kidney (Mouse 2, dose 1.0 mg/kg): 5.5 p/s (×10^6); Organ Mean Total Flux Liver (Mouse 2, dose 1.0 mg/kg): 1118 p/s (×10^6); Organ Mean Total Flux Lung (Mouse 2, dose 1.0 mg/kg): 72.8 p/s (×10^6); Organ Mean Total Flux Muscle (Mouse 2, dose 1.0 mg/kg): 28.7 p/s (×10^6); Organ Mean Total Flux Pancreas (Mouse 2, dose 1.0 mg/kg): 86.2 p/s (×10^6); Organ Mean Total Flux Spleen (Mouse 2, dose 1.0 mg/kg): 367.7 p/s (×10^6); Organ Mean Total Flux Femur (Mouse 14, dose 0.5 mg/kg): 11.4 p/s (×10^6); Organ Mean Total Flux Heart (Mouse 14, dose 0.5 mg/kg): 2.5 p/s (×10^6); Organ Mean Total Flux Kidney (Mouse 14, dose 0.5 mg/kg): 4.1 p/s (×10^6); Organ Mean Total Flux Liver (Mouse 14, dose 0.5 mg/kg): 448.0 p/s (×10^6); Organ Mean Total Flux Lung (Mouse 14, dose 0.5 mg/kg): 20.5 p/s (×10^6); Organ Mean Total Flux Muscle (Mouse 14, dose 0.5 mg/kg): 14.9 p/s (×10^6); Organ Mean Total Flux Pancreas (Mouse 14, dose 0.5 mg/kg): 18.0 p/s (×10^6); Organ Mean Total Flux Spleen (Mouse 14, dose 0.5 mg/kg): 42.7 p/s (×10^6) |
| CCCCC/C=C\CCOC(=O)CCCCC(=O)OCC(COC(=O)CCCCC(=O)OCC/C=C\CCCCC)(COC(=O)CCC(CCCC)CCOC(=O)NCCN1CCCC1)COC(=O)CC12CC3CC(CC(C3)C1)C2 (centres unmarked) [Compound 61, O6-[2-[[2-(1-adamantyl)acetyl]oxymethyl]-2-[[6-[(Z)-non-3-enoxy]-6-oxo-hexanoyl]-oxymethyl]-3-[4-[2-(2-pyrrolidin-1-ylethylcarbamoyloxy)ethyl]octanoyloxy]propyl]O1-[(Z)-non-3-enyl]hexanedioate] | – | – | – | – | – | – | – | – | Organ Mean Total Flux Femur (Mouse 2, dose 1.0 mg/kg): 34.2 p/s (×10^6); Organ Mean Total Flux Heart (Mouse 2, dose 1.0 mg/kg): 1.9 p/s (×10^6); Organ Mean Total Flux Kidney (Mouse 2, dose 1.0 mg/kg): 4.8 p/s (×10^6); Organ Mean Total Flux Liver (Mouse 2, dose 1.0 mg/kg): 542.7 p/s (×10^6); Organ Mean Total Flux Lung (Mouse 2, dose 1.0 mg/kg): 123.9 p/s (×10^6); Organ Mean Total Flux Muscle (Mouse 2, dose 1.0 mg/kg): 28.1 p/s (×10^6); Organ Mean Total Flux Pancreas (Mouse 2, dose 1.0 mg/kg): 28.8 p/s (×10^6); Organ Mean Total Flux Spleen (Mouse 2, dose 1.0 mg/kg): 85.1 p/s (×10^6); Organ Mean Total Flux Femur (Mouse 14, dose 0.5 mg/kg): 16.6 p/s (×10^6); Organ Mean Total Flux Heart (Mouse 14, dose 0.5 mg/kg): 1.0 p/s (×10^6); Organ Mean Total Flux Kidney (Mouse 14, dose 0.5 mg/kg): 5.0 p/s (×10^6); Organ Mean Total Flux Liver (Mouse 14, dose 0.5 mg/kg): 157.3 p/s (×10^6); Organ Mean Total Flux Lung (Mouse 14, dose 0.5 mg/kg): 33.8 p/s (×10^6); Organ Mean Total Flux Muscle (Mouse 14, dose 0.5 mg/kg): 11.1 p/s (×10^6); Organ Mean Total Flux Pancreas (Mouse 14, dose 0.5 mg/kg): 51.6 p/s (×10^6); Organ Mean Total Flux Spleen (Mouse 14, dose 0.5 mg/kg): 109.9 p/s (×10^6) |
| CCCCC/C=C\CCOC(=O)CCCCC(=O)OCC(COC(=O)CCCCC(=O)OCC/C=C\CCCCC)(COC(=O)CCC(CCCCCCCC)OC(=O)NCCN1CCCC1)COC(=O)CC12CC3CC(CC(C3)C1)C2 (centres unmarked) [Compound 66, O6-[2-[[2-(1-adamantyl)acetyl]oxymethyl]-2-[[6-[(Z)-non-3-enoxy]-6-oxohexanoyl]oxymethyl]-3-[4-(2-pyrrolidin-1-ylethylcarbamoyloxy)dodecanoyloxy]propyl]O1-[(Z)-non-3-enyl]hexanedioate] | – | – | – | – | – | – | – | – | Organ Mean Total Flux Femur (Mouse 9, dose 0.5 mg/kg): 5.5 p/s (×10^6); Organ Mean Total Flux Heart (Mouse 9, dose 0.5 mg/kg): 1.3 p/s (×10^6); Organ Mean Total Flux Kidney (Mouse 9, dose 0.5 mg/kg): 1.8 p/s (×10^6); Organ Mean Total Flux Liver (Mouse 9, dose 0.5 mg/kg): 68.9 p/s (×10^6); Organ Mean Total Flux Lung (Mouse 9, dose 0.5 mg/kg): 14.1 p/s (×10^6); Organ Mean Total Flux Muscle (Mouse 9, dose 0.5 mg/kg): 11.3 p/s (×10^6); Organ Mean Total Flux Pancreas (Mouse 9, dose 0.5 mg/kg): 4.0 p/s (×10^6); Organ Mean Total Flux Spleen (Mouse 9, dose 0.5 mg/kg): 7.8 p/s (×10^6) |
